Among the data in patent publication US6511965B2, “Ether type lipid A 1-carboxylic acid analogs” (Sankyo Company, Limited, priority 1999, dated 2003) are IC50 and melting point values, retold here.

In series [1] the test system is TNF α production by U937 cells. Briefly: Test on macrophage activity inhibition (antagonist test): LPS antagonistic activity on TNFα production by U937 cells. The format is cell-based. The settings on record: in the presence of 10 ng/ml of LPS, human monocytic U937 cells, 6 hours, TNFα by ELISA, concentration suppressing TNFα to 50% of standard production amount, read-out: IC50(nM), LPS antagonistic activities of the compounds on TNF α production by U937 cells. As for the experimental part: Test on macrophage activity inhibition (antagonist test).
TNFα is produced in vitro using human monocytic cell strain U937. The production amount of TNFα is determined by ELISA KIT of Genzyme Corporation.
Evaluation is carried out in accordance with the method of Daniel-Issakani, et al. (Journal of Biological Chemistry, 264, 20240-20247 (1989)).
By 10 ng/ml of LPS (lipopolysaccharide), about 1 ng of TNFα is produced per 10^5 cells of U937 during 6 hours (designated as a standard production amount: 100%).
In the presence of 10 ng/ml of LPS, the concentration of each of the compounds obtained in the Examples at which the production amount of TNFα is suppressed to 50% of the standard production amount is determined and it is expressed as ED50%.

Read-outs that look alike come from different tables or passages of the source.

By IC50 is commonly meant the concentration needed to halve the response being measured. As a reminder, the melting point is the temperature of the solid-liquid transition.

With `CCCCCCCCCCCCCC(=O)O[C@H](CCCCCCCCCCC)CCO[C@@H]1[C@@H](NC(C)=O)[C@H](OC[C@H]2O[C@H](C(=O)O)[C@H](NC(=O)C[C@H](O)CCCCCCCCCCC)[C@@H](OCC[C@H](O)CCCCCCCCCCC)[C@@H]2O)O[C@H](CF)[C@H]1OP(=O)(O)O` [Example 3, 2,6-Anhydro-7-O-[2-acetylamino-2,6-dideoxy-6-fluoro-4-O-phosphono-3-O-{(R)-3-tetradecanoyloxytetradecyl}-β-D-glucopyranosyl]-3-{(R)-3-hydroxytetradecanoylamino}-4-O-{(R)-3-hydroxytetradecyl}-3-deoxy-D-glycero-D-ido-heptonic Acid], in series [1] (U-937), the IC50 was determined as 1.2 nM.

`CCCCCCCCCCCCCC(=O)O[C@H](CCCCCCCCCCC)CCO[C@@H]1[C@@H](NC(C)=O)[C@H](OC[C@H]2O[C@H](C(=O)O)[C@H](NC(=O)C[C@H](O)CCCCCCCCCCC)[C@@H](OCC[C@H](O)CCCCCCCCCCC)[C@@H]2O)O[C@H](COC)[C@H]1OP(=O)(O)O` [Example 2, 2,6-Anhydro-7-O-[2-acetylamino-2-deoxy-6-O-methyl-4-O-phosphono-3-O-{(R)-3-tetradecanoyloxytetradecyl}-β-D-glucopyranosyl]-3-{(R)-3-hydroxytetradecanoylamino}-4-O-{(R)-3-hydroxytetradecyl}-3-deoxy-D-glycero-D-ido-heptonic Acid]: the IC50 in series [1] (U-937) amounted to 0.61 nM.

In turn, `CCCCCCCCCCCCO[C@H](CCCCCCCCCCC)CCO[C@@H]1[C@@H](NC(C)=O)[C@H](OC[C@H]2O[C@H](C(=O)O)[C@H](NC(=O)C[C@H](O)CCCCCCCCCCC)[C@@H](OCC[C@H](O)CCCCCCCCCCC)[C@@H]2O)O[C@H](CO)[C@H]1OP(=O)(O)O` [Example 4, 2,6-Anhydro-7-O-[2-acetylamino-2-deoxy-3-O-{(R)-3-dodecyloxytetradecyl}-4-O-phosphono-β-D-glucopyranosyl]-3-{(R)-3-hydroxytetradecanoylamino}-4-O-{(R)-3-hydroxytetradecyl}-3-deoxy-D-glycero-D-ido-heptonic Acid] showed a melting point of 179 to 181 °C. Further, in series [1] (U-937), the IC50 stood at 11 nM.

In the case of `CCCCCCCCCCCCCC(=O)O[C@H](CCCCCCCCCCC)CCO[C@H]1[C@H](OP(=O)(O)O)[C@@H](CO)OC(OC[C@H]2O[C@H](C(=O)O)[C@H](NC(=O)C[C@H](O)CCCCCCCCCCC)[C@@H](OCC[C@H](O)CCCCCCCCCCC)[C@@H]2O)[C@@H]1NC(C)=O` (stereo partly drawn) [Example 1, 2,6-Anhydro-7-O-[2-acetylamino-2-deoxy-4-O-phosphono-3-O-{(R)-3-tetradecanoyloxytetradecyl}-D-glucopyranosyl]-3-{(R)-3-hydroxytetradecanoylamino}-4-O-{(R)-3-hydroxytetradecyl}-3-deoxy-D-glycero-D-ido-heptonic Acid], the IC50 in series [1] (U-937) was 11 nM.

Consider `CCCCCCCCCCCCO[C@H](CCCCCCCCCCC)CCO[C@@H]1[C@@H](NC(C)=O)[C@H](OC[C@H]2O[C@H](C(=O)O)[C@H](NC(=O)C[C@H](O)CCCCCCCCCCC)[C@@H](OCC[C@H](O)CCCCCCCCCCC)[C@@H]2O)O[C@H](CF)[C@H]1OP(=O)(O)O` [Example 6], for which the IC50 in series [1] is 10 nM.

Take `CCCCCCCCCCCCO[C@H](CCCCCCCCCCC)CCO[C@@H]1[C@@H](NC(C)=O)[C@H](OC[C@H]2O[C@H](C(=O)O)[C@H](NC(=O)C[C@H](O)CCCCCCCCCCC)[C@@H](OCC[C@H](O)CCCCCCCCCCC)[C@@H]2O)O[C@H](COC)[C@H]1OP(=O)(O)O` [Example 5, 2,6-Anhydro-7-O-[2-acetylamino-2-deoxy-3-O-{(R)-3-dodecyloxytetradecyl}-6-O-methyl-4-O-phosphono-β-D-glucopyranosyl]-3-{(R)-hydroxytetradecanoylamino}-4-O-{(R)-3-hydroxytetradecyl}-3-deoxy-D-glycero-D-ido-heptonic Acid]: the IC50 in series [1] amounted to 6.4 nM.
